From patent EP4667467A1, “PROTAC DEGRADERS OF MLLT1 AND/OR MLLT3” (Dark Blue Therapeutics Ltd, priority 2024, dated 2025)

Molecular target: T1, MLLT1 (Homo sapiens, UniProt Q03111)
T1 construct: endogenous in cells; host or cells: MV4-11 (ATCC CRL-9591)
T1 sequence (Q03111 1-559): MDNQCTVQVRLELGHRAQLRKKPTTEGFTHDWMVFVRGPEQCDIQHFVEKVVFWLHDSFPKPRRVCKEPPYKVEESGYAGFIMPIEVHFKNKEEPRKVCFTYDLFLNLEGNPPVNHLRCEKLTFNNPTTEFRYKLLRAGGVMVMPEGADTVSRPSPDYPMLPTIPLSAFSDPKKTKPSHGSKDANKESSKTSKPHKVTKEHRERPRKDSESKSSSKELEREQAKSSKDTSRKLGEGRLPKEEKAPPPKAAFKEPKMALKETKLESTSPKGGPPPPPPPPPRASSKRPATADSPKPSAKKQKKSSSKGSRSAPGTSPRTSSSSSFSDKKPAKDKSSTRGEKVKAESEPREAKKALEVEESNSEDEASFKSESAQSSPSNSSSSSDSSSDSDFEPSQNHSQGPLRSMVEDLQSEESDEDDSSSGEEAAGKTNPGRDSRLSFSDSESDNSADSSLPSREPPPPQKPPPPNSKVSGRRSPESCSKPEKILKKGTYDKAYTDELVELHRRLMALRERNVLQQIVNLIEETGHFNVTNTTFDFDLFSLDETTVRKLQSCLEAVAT
Assay: MLLT1 Degradation Assay (JESS automated chemiluminescent detection, MV4-11 cells)
Assay type: cell-based
Settings: 24h, with respect to DMSO control; for MLLT1 % Degradation @ 0.01 µM: 0.01 µM (10 nM) test compound; for MLLT1 % Degradation @ 0.1 µM: 0.1 µM (100 nM) test compound; for MLLT 1 % Degradation @ 1 µM: 1 µM (1000 nM) test compound
Experimental: MLLT1 degradation efficacy of compounds were tested in an automated chemiluminescent detection system (JESS, Cat# 004-650). […] 10 mM DMSO stocks were prepared, and cells were treated with three concentrations of test compounds viz. 1000, 100 and 10 nM at a final DMSO concentration of 0.1% and incubated for 24h at 37°C, 5% CO2. […] Post run, data were analysed using "Compass for SW" software for chemiluminescent detection. The peak area for each band was used for the calculation of MLLT1 degradation with respect to DMSO control. Data is shown as "MLLT1 % degradation".

CN1CCC[C@@H]1c1cc2cnc(NC(=O)c3cccc(C4CCN(c5cccc6c5C(=O)N(C5CCC(=O)NC5=O)C6=O)CC4)c3)cc2[nH]1 (stereo partly drawn) [Example 14, 3-(1-(2-(2,6-dioxopiperidin-3-yl)-1,3-dioxoisoindolin-4-yl)piperidin-4-yl)-N-(2-((R)-1-methylpyrrolidin-2-yl)-1H-pyrrolo[3,2-c]pyridin-6-yl)benzamide]
MLLT1 % Degradation @ 0.01 µM: B (Category B: 50% ≤ B < 75% degradation) | MLLT1 % Degradation @ 0.1 µM: A (Category A: A ≥ 75% degradation) | MLLT 1 % Degradation @ 1 µM: A (Category A: A ≥ 75% degradation)

CN1CCC[C@@H]1c1cc2cnc(NC(=O)c3ccc(C4CCN(c5cccc6c5C(=O)N(C5CCC(=O)NC5=O)C6=O)CC4)cc3)cc2[nH]1 (stereo partly drawn) [Example 15, 4-(1-(2-(2,6-dioxopiperidin-3-yl)-1,3-dioxoisoindolin-4-yl)piperidin-4-yl)-N-(2-((R)-1-methylpyrrolidin-2-yl)-1H-pyrrolo[3,2-c]pyridin-6-yl)benzamide]
MLLT1 % Degradation @ 0.01 µM: B (Category B: 50% ≤ B < 75% degradation) | MLLT1 % Degradation @ 0.1 µM: A (Category A: A ≥ 75% degradation) | MLLT 1 % Degradation @ 1 µM: B (Category B: 50% ≤ B < 75% degradation)

CN1CCC[C@@H]1c1cc2cnc(NC(=O)c3ccc(N4CCC(CC#Cc5cccc6c5CN(C5CCC(=O)NC5=O)C6=O)CC4)nc3)cc2[nH]1 (stereo partly drawn) [Example 16, 6-(4-(3-(2-(2,6-dioxopiperidin-3-yl)-1-oxoisoindolin-4-yl)prop-2-yn-1-yl)piperidin-1-yl)-N-(2-((R)-1-methylpyrrolidin-2-yl)-1H-pyrrolo[3,2-c]pyridin-6-yl)nicotinamide]
MLLT1 % Degradation @ 0.01 µM: A (Category A: A ≥ 75% degradation) | MLLT1 % Degradation @ 0.1 µM: A (Category A: A ≥ 75% degradation) | MLLT 1 % Degradation @ 1 µM: B (Category B: 50% ≤ B < 75% degradation)

CN1CCC[C@@H]1c1cc2cnc(NC(=O)c3ccc(N4CCC(C#Cc5cccc6c5CN(C5CCC(=O)NC5=O)C6=O)CC4)nc3)cc2[nH]1 (stereo partly drawn) [Example 17, 6-(4-((2-(2,6-dioxopiperidin-3-yl)-1-oxoisoindolin-4-yl)ethynyl)piperidin-1-yl)-N-(2-((R)-1-methylpyrrolidin-2-yl)-1H-pyrrolo[3,2-c]pyridin-6-yl)nicotinamide]
MLLT1 % Degradation @ 0.01 µM: A (Category A: A ≥ 75% degradation) | MLLT1 % Degradation @ 0.1 µM: A (Category A: A ≥ 75% degradation) | MLLT 1 % Degradation @ 1 µM: A (Category A: A ≥ 75% degradation)

CN1CCC[C@@H]1c1cc2cnc(NC(=O)c3ccc(N4CCC(OCC5CCN(c6cccc7c6C(=O)N(C6CCC(=O)NC6=O)C7=O)CC5)CC4)nc3)cc2[nH]1 (stereo partly drawn) [Example 18, 6-(4-((1-(2-(2,6-dioxopiperidin-3-yl)-1,3-dioxoisoindolin-4-yl)piperidin-4-yl)methoxy)piperidin-1-yl)-N-(2-((R)-1-methylpyrrolidin-2-yl)-1H-pyrrolo[3,2-c]pyridin-6-yl)nicotinamide]
MLLT1 % Degradation @ 0.01 µM: B (Category B: 50% ≤ B < 75% degradation) | MLLT1 % Degradation @ 0.1 µM: A (Category A: A ≥ 75% degradation) | MLLT 1 % Degradation @ 1 µM: A (Category A: A ≥ 75% degradation)

CN1CCC[C@@H]1c1cc2cnc(NC(=O)c3ccc(OCCC#Cc4cccc5c4CN(C4CCC(=O)NC4=O)C5=O)cc3)cc2[nH]1 (stereo partly drawn) [Example 19, 4-((4-(2-(2,6-dioxopiperidin-3-yl)-1-oxoisoindolin-4-yl)but-3-yn-1-yl)oxy)-N-(2-((R)-1-methylpyrrolidin-2-yl)-1H-pyrrolo[3,2-c]pyridin-6-yl)benzamide]
MLLT1 % Degradation @ 0.01 µM: B (Category B: 50% ≤ B < 75% degradation) | MLLT1 % Degradation @ 0.1 µM: A (Category A: A ≥ 75% degradation) | MLLT 1 % Degradation @ 1 µM: A (Category A: A ≥ 75% degradation)

CN1CCC[C@@H]1c1cc2cnc(NC(=O)c3ccc(-c4cnn(CCCC#Cc5cccc6c5CN(C5CCC(=O)NC5=O)C6=O)c4)cc3)cc2[nH]1 (stereo partly drawn) [Example 21, 4-(1-(5-(2-(2,6-dioxopiperidin-3-yl)-1-oxoisoindolin-4-yl)pent-4-yn-1-yl)-1H-pyrazol-4-yl)-N-(2-((R)-1-methylpyrrolidin-2-yl)-1H-pyrrolo[3,2-c]pyridin-6-yl)benzamide]
MLLT1 % Degradation @ 0.01 µM: A (Category A: A ≥ 75% degradation) | MLLT1 % Degradation @ 0.1 µM: A (Category A: A ≥ 75% degradation) | MLLT 1 % Degradation @ 1 µM: B (Category B: 50% ≤ B < 75% degradation)

CN1CCC[C@@H]1c1cc2cnc(NC(=O)c3ccc(-c4cnn(CCCC#Cc5ccc6c(c5)CN(C5CCC(=O)NC5=O)C6=O)c4)cc3)cc2[nH]1 (stereo partly drawn) [Example 22, 4-(1-(5-(2-(2,6-dioxopiperidin-3-yl)-1-oxoisoindolin-5-yl)pent-4-yn-1-yl)-1H-pyrazol-4-yl)-N-(2-((R)-1-methylpyrrolidin-2-yl)-1H-pyrrolo[3,2-c]pyridin-6-yl)benzamide]
MLLT1 % Degradation @ 0.01 µM: A (Category A: A ≥ 75% degradation) | MLLT1 % Degradation @ 0.1 µM: A (Category A: A ≥ 75% degradation) | MLLT 1 % Degradation @ 1 µM: A (Category A: A ≥ 75% degradation)

CN1CCC[C@@H]1c1cc2cnc(NC(=O)c3ccc(OCC#Cc4cccc5c4CN(C4CCC(=O)NC4=O)C5=O)c(Cl)c3)cc2[nH]1 (stereo partly drawn) [Example 23, 3-chloro-4-((3-(2-(2,6-dioxopiperidin-3-yl)-1-oxoisoindolin-4-yl)prop-2-yn-1-yl)oxy)-N-(2-((R)-1-methylpyrrolidin-2-yl)-1H-pyrrolo[3,2-c]pyridin-6-yl)benzamide]
MLLT1 % Degradation @ 0.01 µM: C (Category C: 25% ≤ C < 50% degradation) | MLLT1 % Degradation @ 0.1 µM: C (Category C: 25% ≤ C < 50% degradation) | MLLT 1 % Degradation @ 1 µM: C (Category C: 25% ≤ C < 50% degradation)

C[C@@H](C#Cc1cccc2c1CN(C1CCC(=O)NC1=O)C2=O)Oc1ccc(C(=O)Nc2cc3[nH]c([C@H]4CCCN4C)cc3cn2)cc1 (stereo partly drawn) [Example 24, 4-(((2S)-4-(2-(2,6-dioxopiperidin-3-yl)-1-oxoisoindolin-4-yl)but-3-yn-2-yl)oxy)-N-(2-((R)-1-methylpyrrolidin-2-yl)-1H-pyrrolo[3,2-c]pyridin-6-yl)benzamide]
MLLT1 % Degradation @ 0.01 µM: A (Category A: A ≥ 75% degradation) | MLLT1 % Degradation @ 0.1 µM: A (Category A: A ≥ 75% degradation) | MLLT 1 % Degradation @ 1 µM: A (Category A: A ≥ 75% degradation)

C[C@H](C#Cc1cccc2c1CN(C1CCC(=O)NC1=O)C2=O)Oc1ccc(C(=O)Nc2cc3[nH]c([C@H]4CCCN4C)cc3cn2)cc1 (stereo partly drawn) [Example 25, 4-(((2R)-4-(2-(2,6-dioxopiperidin-3-yl)-1-oxoisoindolin-4-yl)but-3-yn-2-yl)oxy)-N-(2-((R)-1-methylpyrrolidin-2-yl)-1H-pyrrolo[3,2-c]pyridin-6-yl)benzamide]
MLLT1 % Degradation @ 0.01 µM: A (Category A: A ≥ 75% degradation) | MLLT1 % Degradation @ 0.1 µM: A (Category A: A ≥ 75% degradation) | MLLT 1 % Degradation @ 1 µM: A (Category A: A ≥ 75% degradation)

CN1CCC[C@@H]1c1cc2cnc(NC(=O)c3cccc(OCCCCCCCC#Cc4cccc5c4C(=O)N(C4CCC(=O)NC4=O)C5=O)c3)cc2[nH]1 (stereo partly drawn) [Example 26, 3-((9-(2-(2,6-dioxopiperidin-3-yl)-1,3-dioxoisoindolin-4-yl)non-8-yn-1-yl)oxy)-N-(2-((R)-1-methylpyrrolidin-2-yl)-1H-pyrrolo[3,2-c]pyridin-6-yl)benzamide]
MLLT1 % Degradation @ 0.01 µM: D (Category D: D < 25% degradation) | MLLT1 % Degradation @ 0.1 µM: D (Category D: D < 25% degradation) | MLLT 1 % Degradation @ 1 µM: C (Category C: 25% ≤ C < 50% degradation)

CN1CCC[C@@H]1c1cc2cnc(NC(=O)CCCCCCNc3ccc4c(c3)C(=O)N(C3CCC(=O)NC3=O)C4=O)cc2[nH]1 (stereo partly drawn) [Example 27, 7-{[2-(2,6-dioxopiperidin-3-yl)-1,3-dioxoisoindol-5-yl]amino}-N-{2-[(2R)-1-methylpyrrolidin-2-yl]-1H-pyrrolo[3,2-c]pyridin-6-yl}heptanamide]
MLLT1 % Degradation @ 0.01 µM: C (Category C: 25% ≤ C < 50% degradation) | MLLT1 % Degradation @ 0.1 µM: C (Category C: 25% ≤ C < 50% degradation) | MLLT 1 % Degradation @ 1 µM: B (Category B: 50% ≤ B < 75% degradation)

CN1CCC[C@@H]1c1cc2cnc(NC(=O)CCCCCCNc3cccc4c3C(=O)N(C3CCC(=O)NC3=O)C4=O)cc2[nH]1 (stereo partly drawn) [Example 29, 7-{[2-(2,6-dioxopiperidin-3-yl)-1,3-dioxoisoindol-4-yl]amino}-N-{2-[(2R)-1-methylpyrrolidin-2-yl]-1H-pyrrolo[3,2-c]pyridin-6-yl}heptanamide]
MLLT1 % Degradation @ 0.01 µM: D (Category D: D < 25% degradation) | MLLT1 % Degradation @ 0.1 µM: C (Category C: 25% ≤ C < 50% degradation) | MLLT 1 % Degradation @ 1 µM: A (Category A: A ≥ 75% degradation)

CN1CCC[C@@H]1c1cc2cnc(NC(=O)CCCCCCCCNc3cccc4c3C(=O)N(C3CCC(=O)NC3=O)C4=O)cc2[nH]1 (stereo partly drawn) [Example 30, 9-{[2-(2,6-dioxopiperidin-3-yl)-1,3-dioxoisoindol-4-yl]amino}-N-{2-[(2R)-1-methylpyrrolidin-2-yl]-1H-pyrrolo[3,2-c]pyridin-6-yl}nonanamide]
MLLT1 % Degradation @ 0.01 µM: C (Category C: 25% ≤ C < 50% degradation) | MLLT1 % Degradation @ 0.1 µM: B (Category B: 50% ≤ B < 75% degradation) | MLLT 1 % Degradation @ 1 µM: A (Category A: A ≥ 75% degradation)
